{"source": "patent US10913983B2", "about": "“Sensitivity markers and uses for CDK7 inhibitors in breast cancers” (UNIVERSITY OF SOUTH CAROLINA, priority 2017, dated 2021)", "test_system": "breast cancer cell lines", "assay": "qPCR gene expression after THZ1", "format": "cell-based", "conditions": "250 nM, 6 hours", "procedure": "Cells were plated in 100 mm^2 petri dishes at a density of 1×10^6 cells/plate and allowed to grow for 3-4 days until the cells reached 80% confluency. Cells were treated with THZ1 or with vehicle control (DMSO). Total RNA was extracted using RNAeasy Mini Kit (Qiagen) and 1 μg of total RNA was used to generate cDNA using iScript cDNA synthesis kit (BioRad). Gene expression was quantified using iTaq Universal SYBR green super mix on a CFX384 Real time system (BioRad).", "data": [{"compound": "CN(C)C/C=C/C(=O)Nc1ccc(C(=O)Nc2cccc(Nc3ncc(Cl)c(-c4c[nH]c5ccccc45)n3)c2)cc1", "note": "[THZ1]", "values": [{"measurement": "expression of SOX9 and STAT3", "setting": "MDA-MB-231 and T47D", "value": "not inhibited"}, {"measurement": "expression of CITED2, CDKN1B and PLK2", "setting": "majority of tested cell lines", "value": "significant decrease in expression"}, {"measurement": "expression of EGFR, MYC and FOXC1", "setting": "majority of the cell lines tested", "value": "significantly inhibited"}]}]}
